The values that follow come from patent US11434250B2, “Pyrazolo[1,5a]pyrimidine derivatives as IRAK4 modulators” (Genentech, Inc., priority 2017, dated 2022).

SMILES strings stand for the structures. In brackets after ≈: the same amount, converted by molar mass.

Series [1] concerns the target human IRAK4 (Homo sapiens (Human), UniProt Q9NWZ3). Briefly: IRAK4 enzymatic assay (Transcreener fluorescence polarization, ADP detection). In kind it is biochemical. Particulars: recombinant full-length IRAK4; 125 uM ATP; 90 min. Here is the method: Compounds were assayed for inhibition of human IRAK4 and IRAK1 catalytic activity using recombinant enzyme produced from insect cells. Full-length IRAK4 protein, carrying an N-terminal His6-Tag, was obtained from Life Technologies (Carlsbad, Calif., USA). The IRAK1 construct was produced internally and was comprised of IRAK1 residues Arg194 to Ser712, preceded by an NH2-terminal His6 tag and the coding sequence for glutathione-S-transferase.
Kinase activities were assayed using the Transcreener-Fluorecescence polarization platform (BelBrook Labs, Madison, Wis., USA) that measures amounts of the reaction product, ADP. […] Final IRAK4 assay conditions were 1.25 nM IRAK4; 125 uM ATP; 10 uM MgC2; 125 uM peptide in reaction buffer (25 mM HEPES (pH7.4); 2 mM Dithiothreitol; 0.015% Brij-35; and 0.5% dimethyl sulfoxide. The IRAK1 activity was optimized similarly, yielding final assay conditions of […] IRAK1; 62.5 uM ATP; 5 uM MgCl2, and 62.5 uM IRAK1 peptide in reaction buffer for 60 min.
Assays of compounds for kinase inhibition were performed using inhibitors serially-diluted in dimethyl sulfoxide, which was accomplished with a LabCyte Echo 555 liquid dispenser. 384 well assay plates spotted with compound received 4 ul of a 2× substrate (ATP+peptide) mix in reaction buffer, followed by 4 ul of 2× enzyme diluted in reaction buffer. Reactions were halted at 60 (IRAK1) or 90 (IRAK4) min by addition of 6 ul of detection buffer, containing EDTA ([…] final concentration), 0.95 ug of the ADP-binding antibody ADP2, ADP tracer (3 nM final concentration), and […] HEPES. Following a 1 hr incubation, fluorescence polarization of the ADP2-antibody::TRACER complex was read on a Tecan M1000 plate reader using a 635/20 excitation filter in combination with a 670/20 emission filter. Delta milli-P values were analyzed using Genedata software to fit dose-response curves and compute compound Ki values, using ATP Km values of 642 um and 83.2 uM for IRAK4 and IRAK1, respectively. Table 3 provides IRAK4 Ki values for representative compounds of the present invention.

Series [2] is described as follows: Kinetic solubility assay. In kind it is physicochemical. The conditions noted are these: for solubility kinetic at 24 h: PBS buffer with 2% DMSO, aqueous buffer, kinetic from dmso stock, PBS buffer pH 7.4, 2% DMSO, 24 hours shaking at room temperature, UHPLC-CLND; for Fold improvement in kinetic solubility: example compound versus its matched pair phenyl compound. As to the method:
The kinetic solubility assay started with compound DMSO stock solutions. This assay used Millipore Multiscreen 96-well filter plates for the 24 hour equilibration shaking. Samples were prepared by adding 4 μL of the 10 mM compound DMSO stock solutions into 196 μL of PBS buffer pH 7.4 in the 96-well filter plates, yielding a compound concentration of 200 μM and 2% DMSO. The filter plate was sealed with aluminum sealing film and shaken at room temperature for 24 hours at 1000 rpm. When shaking has completed, the solutions were filtered into a clean 96-well plate utilizing a vacuum manifold. After filtration, some precipitate is often observed at the bottom of the filtration plate wells. Most of the precipitates appear to be crystalline under a polarizing light microscope. The filtrate samples were diluted by a factor of 2 using PBS pH7.4 buffer and then transferred to a 384-well plate for analysis by UHPLC-CLND (CLND: Chemiluminescence nitrogen detector). 5 μL of each sample was injected twice into the UHPLC-CLND for two repeat analysis.
Samples were detected and analyzed using UV 254 nm and CLND. UV 254 nm is used primarily to confirm the sample purity but in rare cases, is also used to quantify the concentration of compounds with no nitrogens, where additional work is done to create a compound specific calibration curve. The identification of CLND target peaks of each compound were confirmed by LCMS. Sample quantification was accomplished by CLND peak intensity, the calibration curve, and the number of nitrogen contained in the compound. One calibration curve of caffeine was used for solubility quantitative determination. A fresh calibration curve was created for every batch. The number of nitrogens in a compound used for this quantification was corrected for the actual configuration of the nitrogen in the compound.

The nature of series [3]: Plasma protein binding using rapid equilibrium dialysis (RED). Particulars: pH 7.4, human plasma, 37° C., read-out: Human PPB (converted). The class given is in vitro ADME. As to the method:
Plasma protein binding was measured in duplicate using rapid equilibrium dialysis (RED) device ((Thermo Scientific Pierce) in a 96-well format. Briefly, 10.0 μL drug or control compounds (0.5 mM in DMSO) was mixed with 1000 μL plasma (pH adjusted to 7.4) from various species (BioreclamationIVT). Aliquots of 300 μL drug/plasma mixture were placed into the donor side chamber of a single-use RED plate, and 500 μL aliquots of PBS buffer were placed into the adjacent chamber as the receiver side. The plate was incubated on an orbital shaker at 400 rpm, at 37° C. for 4 hours. After completion of incubation, 50 μL aliquots from the PBS buffer side were mixed with 5 μL of blank plasma matrix, and 5 μL from the donor side (plasma) were mixed with 50 μL blank PBS buffer. All samples were then crashed with 200 μL acetonitrile (containing internal standard) to precipitate plasma proteins. The samples were centrifuged at 3750 rpm for 10 min to pellet the proteins. The supernatants were carefully transferred to a fresh 96-well plate, and diluted with an equivalent volume of water. The samples were then analyzed by LC-MS/MS (ABI 4000, ABI Sciex). Data acquisition and processing was performed with Analyst 1.6.1 and Multiquant 2.1. The percent of protein binding and fraction unbound (fu) in matrix was calculated from taking the ratio of responses (peak areas) on the receiver side (buffer) to those on the donor side (plasma). The ratios were normalized to the internal standard.

human IRAK4, sequence (Q9NWZ3 whole entry, the tested form may be a part): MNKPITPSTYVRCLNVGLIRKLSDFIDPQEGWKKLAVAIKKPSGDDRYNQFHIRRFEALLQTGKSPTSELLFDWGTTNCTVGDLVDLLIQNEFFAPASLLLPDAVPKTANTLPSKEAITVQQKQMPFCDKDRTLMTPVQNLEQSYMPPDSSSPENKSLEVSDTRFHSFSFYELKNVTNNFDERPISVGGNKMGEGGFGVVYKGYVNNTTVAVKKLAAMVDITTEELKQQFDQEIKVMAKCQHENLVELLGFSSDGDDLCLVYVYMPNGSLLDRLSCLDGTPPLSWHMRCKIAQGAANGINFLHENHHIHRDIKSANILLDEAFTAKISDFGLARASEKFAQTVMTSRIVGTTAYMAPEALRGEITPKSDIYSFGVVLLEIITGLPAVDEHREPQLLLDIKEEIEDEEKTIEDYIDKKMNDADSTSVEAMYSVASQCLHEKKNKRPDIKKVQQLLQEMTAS

Consider `CC1(C)Cc2cc(NC(=O)c3cnn4cccnc34)c(N3CCOCC3)nc2O1` [Example 1, N-(2,2-dimethyl-6-morpholino-2,3-dihydrofuro[2,3-b]pyridin-5-yl)pyrazolo[1,5-a]pyrimidine-3-carboxamide], for which the inhibition constant Ki in series [1] worked out at 39 nM. In series [2], the solubility (kinetic) at 24 h stood at 166 µM (≈ 65.5 µg/mL) and the “Fold improvement in kinetic solubility” value was 166.0. In series [3], the fraction unbound at 4 h, 5 µM is 0.143.
Take `CC1(C)Cc2cc(NC(=O)c3cnn4cccnc34)c(N3CCN(CC(N)=O)CC3)nc2O1` [Example 6, N-[6-[4-(2-amino-2-oxo-ethyl)piperazin-1-yl]-2,2-dimethyl-3H-furo[2,3-b]pyridin-5-yl]pyrazolo[1,5-a]pyrimidine-3-carboxamide]: in series [1], the Ki came to 4 nM. For the same molecule, in series [2], the solubility (kinetic) at 24 h came to 143 µM (≈ 64.4 µg/mL) and the “Fold improvement in kinetic solubility” value came out at 14.6. The fraction unbound at 4 h, 5 µM in series [3] was 0.226.
Take `CC1(C)Cc2cc(NC(=O)c3cnn4cccnc34)c(N3CCN(CC(F)F)CC3)nc2O1` [Example 9, N-(6-(4-(2,2-Difluoroethyl)piperazin-1-yl)-2,2-dimethyl-2,3-dihydrofuro[2,3-b]pyridin-5-yl)pyrazolo[1,5-a]pyrimidine-3-carboxamide]: the inhibition constant Ki in series [1] worked out at 7.6 nM. Further, in series [2], the kinetic solubility at 24 h is 137 µM (≈ 62.7 µg/mL) and the “Fold improvement in kinetic solubility” value was 137.0. For the same molecule, the fraction unbound at 4 h, 5 µM in series [3] was 0.123.
